Experimental data from patent EP4786487A1, “PEPTIDE” (Peptidream Inc, priority 2023, dated 2025).
Like-named read-outs stand apart in the source and are kept apart here. Starred links: 1 amine or outer side, 2 acyl side, 3 side chain; linkers in the order of their positions; H or OH if unused. Positions of bridges follow the written chain, without caps; N, C: chain ends. Non-standard residues stand in square brackets, D forms with d. Residues, ends and D or L forms follow the SMILES beside them. Phe(3-OCH2COOH) = N[C@@H](Cc1cccc(OCC(=O)O)c1)C(=O)O; Phe(4-COOH) = N[C@@H](Cc1ccc(C(=O)O)cc1)C(=O)O; Bip = N[C@@H](Cc1ccc(-c2ccccc2)cc1)C(=O)O; Gly(N(CH2)3COOH) = O=C(O)CCCNCC(=O)O; NMeY = CN[C@@H](Cc1ccc(O)cc1)C(=O)O; X1 = CCCCCCC[C@H](N[*:1])C(=O)[*:2]; NMeF = CN[C@@H](Cc1ccccc1)C(=O)O; d(hCys) = N[C@H](CCS)C(=O)O; NMeC = CN[C@@H](CS)C(=O)O; NMeA = CN[C@@H](C)C(=O)O; dNMeA = CN[C@H](C)C(=O)O

Assays:
Assay type in all cases: cell-based
Myostatin [1] = target: T1, Myostatin (Homo sapiens, UniProt O14793); test: Reporter gene assay for myostatin signaling in HepG2 cell line, Evaluation Procedure (1), myostatin inhibition; details: Method A: Myostatin 10 ng/mL; read-out: IC50 (Luciferase) Myostatin HepG2
T1 construct: active myostatin (also called mature myostatin) is a homodimer consisting of two C-terminal growth factor domains; purchased R&D systems 788-G8/CF
T1 sequence (O14793 267-375): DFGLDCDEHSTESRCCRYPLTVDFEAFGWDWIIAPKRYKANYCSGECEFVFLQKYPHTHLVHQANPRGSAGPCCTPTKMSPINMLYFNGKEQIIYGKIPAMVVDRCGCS
Method: (§1) In this Example, the in vitro myostatin inhibitory effects of the peptides synthesized in Examples 1 and 2 were evaluated using a reporter gene assay for myostatin signaling in HepG2 cell line.
(§2) HepG2 cell line (HB-8065, ATCC) cultured in EMEM (055-08975, WAKO Industries) containing 10% FBS (10270106, Gibco) and 50 µg/mL gentamicin (11980-14, Nacalai Tesque) was seeded in 96-well plates (167008, Thermo) at 2.0 × 10^4 cells/well and incubated in a CO2 incubator (37°C, 5% CO2) for 24 hours. The pGL3(CAGA)12-luc plasmid, namely a pGL3 vector (E1751, Promega) having a luciferase gene inserted downstream of a promoter sequence with 12 CAGA repeats attached, was added to the wells along with a transfection reagent (X-treamGENE9 DNA Transfection Reagent, 6365809001, Roche) at a concentration of 0.04 µg/well. The cell line was cultured in a CO2 incubator (37°C, 5% CO2) for 24 hours for transfection. The medium was discarded and replaced with EMEM containing 50 µL/well of 0.1% bovine serum albumin (A7030, Sigma) and 50 µg/mL gentamicin, and incubated in a CO2 incubator (37°C, 5% CO2) for 2 hours.
(§3) Myostatin (788-G8/C, R&D systems) or GDF-11 (1958-GD-G8/CF, R&D systems) was added so that the final concentrations were those listed in Table 5.
(§4) A 4-fold dilution series of various peptides synthesized in Examples 1 and 2 was added to achieve 0.006-100 nmol/L (myostatin inhibition) and 0.12-2000 nmol/L (GDF-11 inhibition). At this time, blank wells, in which neither myostatin, GDF-11, nor each peptide was added, were also prepared and incubated in a CO2 incubator (37°C, 5% CO2) for 20 to 24 hours.
(§5) The medium containing the cells was removed, and a mixture containing PBS (14190144, Thermo) and a chromogenic substrate One-Glo Luciferase Assay System (E6120, Promega) at a ratio of 1:1 was added to each well at 100 µL/well. This was stirred with a plate shaker for 5 min and transferred to a 384-well plate (3570, Corning) at a volume of 20 µL/well.
(§6) The plate was centrifuged at 1,000 × g for 1 min and the luminescence signal (700 nm luminescence) was measured using a plate reader (Envision 2104, PerkinElmer). Based on the measured values, IC50 values of the peptides were calculated using software (Prism 9, GraphPad). […]
(§7) In this Example, the in vitro myostatin inhibitory effects of the peptides synthesized in Examples 10 and 11 were evaluated according to the Evaluation Procedure (1) in Example 3.

GDF-11 [2] = target: T2, GDF-11 (Homo sapiens, UniProt O95390); test: Reporter gene assay for myostatin signaling in HepG2 cell line, Evaluation Procedure (1), GDF-11 inhibition; details: Method A: GDF-11 10 ng/mL; read-out: IC50 (Luciferase) GDF-11 HepG2
T2 construct: purchased R&D systems 1958-GD-G8/CF
T2 sequence (O95390 299-407): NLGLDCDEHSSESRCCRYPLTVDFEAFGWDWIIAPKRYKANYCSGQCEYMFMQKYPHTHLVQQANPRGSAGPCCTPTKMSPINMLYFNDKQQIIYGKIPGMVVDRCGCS
Method: as §1, §2, §3, §4, §5, §6, §7

Myostatin [3] = target: T1, Myostatin; test: HepG2 reporter gene assay, Evaluation Procedure (2): 2-concentrations assay, myostatin inhibition; details: Table 7-3/7-4, myostatin 10 ng/mL, HepG2, read-out: inhibition rate (myostatin inhibition assay); for inhibition at 0.1 µM: peptide at the higher of the 2 concentrations; for inhibition at 0.03 µM: peptide at the lower of the 2 concentrations
In short: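 Myostatin inhibition was measured in a luciferase reporter assay using HepG2 cells transfected with a pGL3 vector containing 12 CAGA repeats upstream of luciferase. After 20 to 24 hours with 10 ng/mL myostatin, cells received One-Glo:PBS (1:1) at 100 µL/well, were shaken for 5 min, and 20 µL/well was moved to 384-well plates and read on an Envision 2104.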

GDF-11 [4] = target: T2, GDF-11; test: HepG2 reporter gene assay, Evaluation Procedure (2): 2-concentrations assay, GDF-11 inhibition; details: read-out: inhibition rate (GDF-11 inhibition assay)
In short: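 HepG2 cells carrying the transfected pGL3(CAGA)12-luc reporter, a pGL3 vector with luciferase placed downstream of 12 CAGA repeats, were stimulated with GDF-11 at a final 10 ng/mL together with test peptide. Blank wells received no GDF-11 and no peptide. Plates were incubated 20 to 24 hours at 37°C with 5% CO2. Luminescence from One-Glo substrate was read to calculate percent inhibition.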

[5] = HepG2, first GDF-11 column of Table 7-3/7-4, GDF-11 10 ng/mL, peptide at the lower of the 2 concentrations
[6] = HepG2, second GDF-11 column of Table 7-3/7-4, GDF-11 10 ng/mL, peptide at the higher of the 2 concentrations

IC50 (Myostatin [1])	IC50 (GDF-11 [2])	inhibition at 0.1 µM (Myostatin [3])	inhibition at 0.03 µM (Myostatin [3])	inhibition (GDF-11 [4]; [5])	inhibition (GDF-11 [4]; [6])	SMILES
23.1 nM	4030 nM	–	–	–	–	CC[C@H](C)[C@@H]1NC(=O)[C@H](Cc2ccc(O)cc2)N(C)C(=O)[C@H](Cc2ccc(O)cc2)NC(=O)[C@H](Cc2ccc(-c3ccccc3)cc2)NC(=O)[C@H](C)NC(=O)CN(CCCC(=O)O)C(=O)CSC[C@H](C(=O)O)NC(=O)[C@H](Cc2ccccc2)N(C)C(=O)[C@H](C)N(C)C(=O)[C@H](CC(C)C)NC(=O)[C@H](Cc2ccccc2)N(C)C(=O)[C@H](CCCNC(=N)N)NC(=O)[C@H](Cc2ccc(C(=O)O)cc2)NC(=O)[C@H](Cc2cccc(OCC(=O)O)c2)NC(=O)[C@@H](C)N(C)C1=O [Myostatin_99_v118] ({CH2CO}-[Gly(N(CH2)3COOH)]A[Bip]Y[NMeY]I[dNMeA][Phe(3-OCH2COOH)][Phe(4-COOH)]R[NMeF]L[NMeA][NMeF][dC]-OH; thioether N-15)
–	–	100%	99%	0%	9%	CCCCCCC[C@@H]1NC(=O)[C@H](Cc2ccccc2)N(C)C(=O)[C@H](CCCNC(=N)N)NC(=O)[C@H](Cc2ccc(C(=O)O)cc2)NC(=O)[C@H](Cc2cccc(OCC(=O)O)c2)NC(=O)[C@H](C)N(C)C(=O)[C@H]([C@@H](C)CC)NC(=O)[C@H](Cc2ccccc2)N(C)C(=O)[C@H](Cc2ccc(O)cc2)NC(=O)[C@H](Cc2c[nH]c3ccccc23)NC(=O)[C@H](C)NC(=O)CN(CCCC(=O)O)C(=O)CSC[C@@H](C(N)=O)N(C)C(=O)[C@H](Cc2ccccc2)N(C)C(=O)[C@H](C)N(C)C1=O [Myostatin_99_v440] ({CH2CO}-[Gly(N(CH2)3COOH)]AWY[NMeF]I[NMeA][Phe(3-OCH2COOH)][Phe(4-COOH)]R[NMeF][X1][NMeA][NMeF][NMeC]-NH2; thioether N-15)
–	–	100%	100%	0%	0%	CCCCCCC[C@@H]1NC(=O)[C@H](Cc2ccccc2)N(C)C(=O)[C@H](CCCNC(=N)N)NC(=O)[C@H](Cc2ccc(C(=O)O)cc2)NC(=O)[C@H](Cc2cccc(OCC(=O)O)c2)NC(=O)[C@H](C)N(C)C(=O)[C@H]([C@@H](C)CC)NC(=O)[C@H](Cc2ccccc2)N(C)C(=O)[C@H](Cc2ccc(O)cc2)NC(=O)[C@H](Cc2c[nH]c3ccccc23)NC(=O)[C@H](C)NC(=O)CN(CCCC(=O)O)C(=O)CSCC[C@H](C(=O)O)NC(=O)[C@H](Cc2ccccc2)N(C)C(=O)[C@H](C)N(C)C1=O [Myostatin_99_v441] ({CH2CO}-[Gly(N(CH2)3COOH)]AWY[NMeF]I[NMeA][Phe(3-OCH2COOH)][Phe(4-COOH)]R[NMeF][X1][NMeA][NMeF][d(hCys)]-OH; thioether N-15)
